Measured values published in US7745465B2, “Method of enhancing cellular production of molecular chaperone, hydroxylamine derivatives useful for enhancing the chaperone production and the preparation thereof” (CytRx Corporation, priority 1995, dated 2010).

Experiments:
[1] = system: Male Sprague-Dawley rats; assay: Protection against cardiac ischaemia: survival after 5 minutes coronary occlusion and reperfusion; assay type: in vivo, rat; details: i.v. 1 mg/kgbw, 5 min. before the occlusion; non-treated control 10
Description: Male Sprague-Dawley rats (380-450 g b.w.) were anaesthetized with sodiumpentobarbital (Nembutal 60 mg/kg body weight, i.p.) and artificially ventilated with room air (2 ml/100 g; 54 stroke/minutes) via tracheotomy. The right carotid artery was catheterized and connected to a pressure transducer (BPR-01, Stoelting) for the measurement of systemic arterial blood pressure (BP) by means of a preamplifier (Hg-02, Experimetria). Hydroxylamine derivatives disclosed in Example 5 were administered via the venous cannule to jugular vein (i.v.) and orally (p.o.). Heart rate (HR) was measured by a cardiotachometer (HR-01, Experimetria). The electrocardiogram (ECG standard lead II) was recorded on a devices recorder (MR-12, Medicor) by means of subcutaneous steel needles electrodes. The chest was opened by a left thoracotomy and the heart was exteriorized by a gentle pressure on the right side of the rib cage. A 4-0 silk suture was quickly placed under the main left coronary artery as described by Selye et al. (1960). The heart was carefully replaced in the chest and the animal left to recover. Rectal temperature was monitored and kept constant at 37 C. The experimental protocol was initiated with a 15 minute stabilization period during which the observation of a sustained blood pressure less than 70 mmHg and or the occurrence of anhythmia led to exclusion. Myocardial ischemia was induced with coronary occlusion for 5 minutes and reperfusion allowed for 10 minutes.
During the entire experiment BP, HR and ECG were continuously registered on a multiscriptor (R61-6CH, Medicor). Hydroxylamine derivatives, the tautomeric forms of which are represented by structures (I) and (II), were administered 5 to 60 minutes before the occlusion after i.v. and p.o. treatment, respectively. […]
The mean duration of ventricular tachycardia (VT) and/or ventricular fibrillation (VF) during the first 3 minutes of reperfusion was analyzed by one-way analysis of variance. The incidence of VF was analyzed using a chi-square test. […] The haemodynamic variables were analyzed using Student's “t”-test. The critical level of significance was set at p<0.05. All results were expressed as a means±S.E.M. Drugs were administered i.v. in a dose of 1 mg/kgbw 5 min. before the occlusion.
The hydroxylamine derivatives that are found to be particularly advantageous for protecting an animal against ischemic/reperfusion injury are listed below. Survival (%) indicates the percent of animals survived the effects of 5 minutes coronary occlusion.

[2] = system: Hsp72; assay: Heat stress induced hsp72 expression in rat spleen explant; assay type: cell-based; details: 10^−5 M, 15 min. before 43° C. 30 min.
Description: These experiments were performed on rat spleen and testicular tissue explants applying heat stress after treatment with the experimental compounds. Experiments on spleen suspension were carried out as follows.
Spleens of CFY rats weighing 200 g were removed aseptically, and were homogenized in 10% fetal bovine serum containing MEM culture medium. The concentration of the cell suspension was adjusted to 50-100 mg/5 ml.
Five ml cell suspension was given into each of the culture dishes of 6 cm of diameter and the explants were incubated for one hour in a 5% CO2 containing humidified air at 37° C. then cultures were treated with the 10^−5 M concentration of the test compounds. After further 15 min. incubation at 37° C. the cultures were exposed to heat shock at 43° C. for 30 min. in an incubator. The amount of the induced hsp72 was measured after a further 6 hours incubation at 37° C.

[3] = system: Hsp72; assay: Heat stress induced hsp72 expression in rat testicular explant; assay type: cell-based; details: 10^−5 M, 15 min. before 43° C. 30 min.
Description: Testis of CFY rats weighing of 200 g were removed in sterile conditions and the released testicular tubuli were suspended in 10% fetal bovine serum containing MEM culture medium in that way that five ml suspension contained 50-100 mg tissue. The explants were incubated in 5% CO2 containing humidified air at 37° C. for one hour, then the cultures were treated with 10^−5 M concentration of the tested compounds. After a further incubation for 15 min. at 37° C., explants were exposed to heat shock at 43° C. for 30 min. The amount of the induced hsp72 was measured after a further 6 hours incubation at 37° C.

[4] = system: Rats with genetic hypertension; assay: Morphological examination of the thoracic aorta of rats with genetic hypertension; assay type: in vivo, rat; details: daily oral treatment (20 mg/kg 8 days or 5 mg/kg 20 days)
Description: Rats with genetic hypertension were divided into four groups of four. The groups were treated daily, orally, the first group with physiological saline, the second group with N-[2-hydroxy-3-(1-piperidinyl)]-propoxy-3-pyridine-carboximidoyl-chloride maleate (20 mg/kg) for 8 days, the third group with N-[2-hydroxy-3-(1-piperidinyl)-propoxy]-benzimidoyl-chloride monohydrochloride (5 mg/kg) for 20 days and the fourth group with N-[2-hydroxy-3-(1-piperidinyl)-propoxy]-2-thiophenecarboximidoyl-chloride monohydrochloride (5 mg/kg) for 20 days. Animals were sacrificed, aortas were isolated, snap frozen in liquid nitrogen and were stored at −70° C. till they were used.
The examination was performed according to published methods (Br. J. of Pharmacol., 1995; 115, […]). A 1 mm^2 area of the thoracic aorta was excised and fixed in 2.5% glutaral-dehyde at room temperature. Post fixation was performed in 1% osmium-tetroxide for one hour. The tissue was dehydrated in ethanol and was embedded in Durcupan ACM. Pictures were taken by a Hitachi 7100 electronmicroscope and were evaluated qualitatively.

[5] = system: HSP72; assay: Heat stress induced HSP72 production in 3T3 cells; assay type: cell-based, mouse; details: 10^−5 M
Description: (§1) From the applied cells the 3T3 and L-929 mouse fibroblasts were cultured in MEM medium and grew in monolayer, the U-937 human leukemia cells were maintained in RPMI-1640 medium, in suspension culture, while the HeLa human epithelial cells were cultured in DMEM medium and in monolayer form. Cell cultures were maintained as described in example 6.2 (a) with the difference that cells were cultured in the above mentioned culture mediums.
(§2) Experiments were carried out applying stress before and after the drug treatment. Stress was provoked by heat, by chemical agent, HgCl2 treatment. The test compounds were applied in the treatments at the 10^−5 M concentration.
The experiments on 3T3 cell applying heat stress were performed as described in the 6.2. (c) point of example 6, with the difference that stress was induced by a 30 min. exposure at 43° C. temperature and treatment with the test compounds was performed 15 min. before or 100 min. after the heat stress.
Immunodetection was carried out using the HSP72 specific SPA 810 (StressGene) primary and the horse-radish peroxidase conjugated A9044 (Sigma) secondary antibodies. Densitometric evaluation was performed by a LKB Ultrascan XL densitometer.

[6] = system: GRP-94; assay: Level of GRP-94 in STZ diabetic rat liver (Western blot); assay type: in vivo
[7] = system: hsp72; assay: HgCl2 stress induced hsp72 level in HeLa cells; assay type: cell-based, human; details: 10^−5 M, 0.5 μg/ml HgCl2, 6 hours
Description: as §1, §2
These experiments were performed on HeLa, human epithelial and U-937, human leukemia cells using HgCl2 to induce stress response. Drug treatment was carried out before cells were exposed to the stress. Test cultures were prepared and treatments were performed as in the experiments with the 3T3 cells. After the drug treatment cells were incubated at 37° C. for 15 min. than all the cultures except two (non stressed control) were exposed to 0.5 μg/ml concentration of HgCl2 and the incubation was followed. The induced amount of hsp72 was measured 6 hours after the exposure to stress.

[8] = treatment 15 min. before 30 min. 43° C. heat stress
[9] = treatment 100 min. after 30 min. 43° C. heat stress

| Molecule | Survival (%) [1] [%] | Level of hsp72 relative to the stress exposed control [2] | Level of hsp72 relative to the stress exposed control [3] | HSP72 level relative to the stress exposed control [5, 8] | also measured |
| --- | --- | --- | --- | --- | --- |
| CC(C)(C)NCC(O)CONC(=O)c1cccc(C(F)(F)F)c1 (centres unmarked) [Example 65] | 78 | + (21-50%) | 0 (0 indicates that the treatment altered by ±20% the stress induced hsp72 level in the cells) | – | – |
| O=C(O)/C=C\C(=O)O.O=C(OC(CON=C(Cl)c1cccnc1)CN1CCCCC1)c1ccccc1 (centres unmarked) [Example 21, N-[2-benzoyloxy-3-(1-piperidinyl)propoxy]-3-pyridinecarboximidoyl chloride (Z)-2-butenedioate (1:1)] | – | – | + + | – | melting point: 134 to 136 °C |
| Cl.OC(CON=C(Cl)c1cccs1)CN1CCCCC1 (centres unmarked) [Example 1, N-[2-hydroxy-3-(1-piperidinyl)propoxyl]-2-thiophenecarboximidoyl chloride monohydrochloride] | 100 | – | – | – | regeneration of the cells of aorta [4]: facilitated the regeneration of the cells of aorta |
| CCCCCCCCCCCCCCCC(=O)OC(CON=C(Cl)c1cccnc1)CN1CCCCC1.Cl.Cl (centres unmarked) [Example 23, N-[2-palmitoyloxy-3-(1-piperidinyl)propoxy]-3-pyridinecarboximidoyl chloride dihydrochloride] | – | – | + + + | – | melting point: 69 to 73.5 °C |
| O=C(NOCC(O)CN1CCCCC1)Nc1cccc(Cl)c1 (centres unmarked) [Example 59, N-(3-chlorophenyl)-N′-[2-hydroxy-3-(1-piperidinyl)propoxy]-urea] | – | +++ (>100%) | – | +++ (>100%) | – |
| insulin: Insulin (Protophane HM inj.) [reference compound] | – | – | – | – | levels of GRP-94 compared to the control state ([6]; insulin alone, 1 week and 2-weeks samples): almost doubled; relative amount of GRP-94 ([6]; rats diabetic for 4 weeks, insulinized, not treated with the compound): recovery of GRP-94 to the control level |
| CCCCCCCNC(=O)NOCC(O)CN1CCCCC1 (centres unmarked) [Example 55, N-[2-hydroxy-3-(1-piperidinyl)propoxy]-N′-heptyl-urea] | – | +++ (>100%) | + + | – | – |
| c1cncc(C2=NOCC(CN3CCCCC3)N2)c1 (centres unmarked) [Example 64, 5,6-Dihydro-5-(1-piperidinyl)methyl-3-(3-pyridyl)-4H-1,2,4-oxadiazine] | 100 | 0 (0 indicates that the treatment altered by ±20% the stress induced hsp72 level in the cells) | + + | +++ (>100%) | HSP72 level relative to the stress exposed control [5, 9]: 0 (0 indicates that the treatment altered by ±20% the stress induced hsp72 level in the cells) |
| Cl.OC(CON=C(Cl)c1ccccc1)CN1CCCCC1 (centres unmarked) [N-[2-hydroxy-3-(1-piperidinyl)-propoxy]-benzimidoyl-chloride monohydrochloride] | 100 | – | + + + | + (21-50%) | increase of the stress induced hsp72 level [7]: more than 20%; regeneration of the cells of aorta [4]: facilitated the regeneration of the cells of aorta |
| CCN(CC)CC(O)CON=C(Cl)c1cccc(C(F)(F)F)c1.Cl (centres unmarked) [Example 12, N-[3-(diethylamino)-2-hydroxypropoxy]-3-trifluoromethyl-benzenecarboximidoyl chloride monohydrochloride] | – | – | + (21-50%) | – | melting point: 121 to 128 °C |
| Cl.O=[N+]([O-])c1cccc(C(Cl)=NOCCCN2CCCCC2)c1 [Example 79, O-(3-piperidinopropyl)-3-nitro-benzhydroximyl chloride hydrochloride] | 100 | – | + + | +++ (>100%) | HSP72 level relative to the stress exposed control [5, 9]: + (21-50%); increase of the stress induced hsp72 level [7]: more than 50% |
